Experiments:
CB2-Receptor = target: T1, CB2-Receptor (Homo sapiens, UniProt P34972); test: In-vitro determination of affinity to CB2 receptor (radioligand [3H]-CP55940); type: binding
T1 construct: purchased Receptor Biology, Inc
Protocol: (§1) The in-vitro determination of the affinity of the inventive substituted pyrazoline compounds to CB1/CB2-Rezeptors is carried out as described in the publication of Ruth A. Ross, Heather C. Brockie et al., "Agonist-inverse agonist characterization at CB1 and CB2 cannabinoid receptors of L-759633, L759656 and AM630", British Journal of Pharmacology, 126, 665-672, (1999), whereby the transfected human CB1 and CB2 receptors of Receptor Biology, Inc. are used. The radioligand used for both receptors is [^3H]-CP55940. The respective parts of the description is hereby incorporated by reference and forms part of the present disclosure.
(§2) The affinity of the inventive substituted pyrazoline compounds to CB1/CB2 receptors was determined as described above.

CB1-Receptor = target: T2, CB1-Receptor (Homo sapiens, UniProt P21554); test: In-vitro determination of affinity to CB1 receptor (radioligand [3H]-CP55940); type: binding
T2 construct: purchased Receptor Biology, Inc
Protocol: as §1, §2

male mice B6 Lep ob/ob = test: In-vivo testing for regulation of triglycerides in blood, obese mice on high fat diet; details: for triglicerides blood levels (result in words): obese mice fed with high fat diet
Text: The study was done using six weeks old male mice B6 Lep ob/ob, obtained from Charles River (France). Mice were divided in 3 groups : I (control), II (vehicle), III (example 0).
The animals of the group I received the standard diet (D-12450B, Research Diets, NJ, USA).
The animals of the groups II and III were fed with a High Fat Diet (D-12492, Research Diets, NJ, USA), in both cases for 7 weeks (References 1 and 2).
The animals of the groups III were fed with a High Fat Diet (D-12492, Research Diets, NJ, USA), in both cases for 7 weeks (References 1 and 2).
At the end of the feeding period of 7 weeks, it was started the treatment period (14 days): Group II mice received the vehicle (10 ml/kg/day, po, of the aqueous solution of acacia gum, 5% WN). Group III was administered with 30 mg/kg/day, po, of the inventive compound 5-(4-chlorophenyl)-1-(2,4-dichlorophenyl)-4,5-dihydro-pyrazole-3-carboxylic acid according to Example 0. Group I didn't received any treatment. The three groups of mice had the same diet than in the previous period.
At the end of the 14 days period of treatment, the blood levels of triglicerides of the animals were determined.
The analysis of the whole blood samples was done using test strips "Lipid panel" and the photometric Analyzer Cardio-Check Test System, from PA Instruments Polymer Technology Systems Indianapolis, IN-46268, USA (Distributed in Spain by Novalab Iberica S.A.L, Madrid, Spain).

T1 sequence (P34972 whole entry): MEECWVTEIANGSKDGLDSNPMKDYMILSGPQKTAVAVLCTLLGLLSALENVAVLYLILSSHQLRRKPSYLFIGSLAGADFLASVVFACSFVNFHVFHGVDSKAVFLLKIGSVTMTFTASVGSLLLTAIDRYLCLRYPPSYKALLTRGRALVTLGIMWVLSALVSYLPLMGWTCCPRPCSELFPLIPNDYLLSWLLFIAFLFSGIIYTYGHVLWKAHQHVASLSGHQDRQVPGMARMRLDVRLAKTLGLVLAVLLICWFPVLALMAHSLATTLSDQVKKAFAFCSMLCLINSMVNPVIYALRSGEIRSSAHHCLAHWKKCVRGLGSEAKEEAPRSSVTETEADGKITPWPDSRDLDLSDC
T2 sequence (P21554 whole entry): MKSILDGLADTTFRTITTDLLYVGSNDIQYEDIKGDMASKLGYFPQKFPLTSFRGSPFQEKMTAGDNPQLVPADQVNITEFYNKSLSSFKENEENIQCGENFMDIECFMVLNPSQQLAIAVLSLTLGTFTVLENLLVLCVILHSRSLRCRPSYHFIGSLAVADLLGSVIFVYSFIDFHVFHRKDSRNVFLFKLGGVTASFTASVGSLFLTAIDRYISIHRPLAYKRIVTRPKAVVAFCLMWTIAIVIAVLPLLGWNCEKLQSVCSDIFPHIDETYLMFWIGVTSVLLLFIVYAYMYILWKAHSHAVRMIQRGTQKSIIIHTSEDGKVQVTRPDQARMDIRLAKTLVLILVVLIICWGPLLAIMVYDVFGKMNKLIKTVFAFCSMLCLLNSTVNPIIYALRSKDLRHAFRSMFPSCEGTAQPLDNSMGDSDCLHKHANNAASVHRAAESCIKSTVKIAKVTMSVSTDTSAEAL

SMILES	Ki (CB2-Receptor) [µM]	Ki (CB1-Receptor) [µM]	Triglicerides, whole blood levels (mg/dl) (male mice B6 Lep ob/ob; High Fat diet, 30 mg/kg/day po, 14 days of treatment, B6 Lep ob/ob mice)	triglicerides blood levels (result in words) (male mice B6 Lep ob/ob)	triglicerides blood levels (result in words) (male mice B6 Lep ob/ob; listed as Example 8)	Relative levels (male mice B6 Lep ob/ob; triglicerides relative to Group I (standard diet, 100%), High Fat diet, 30 mg/kg/day po, 14 days) [%]
O=C(NN1CCCCC1)C1=NN(c2ccc(Cl)cc2Cl)C(c2ccc(Cl)cc2)C1 (stereo not shown) [Example 1, N-piperidinyl-5-(4-chlorophenyl)-1-(2,4-dichlorophenyl)-4,5-dihydro-1H-pyrazole-3-carboxamide]	> 1	< 0.025	–	–	–	–
O=C(O)C1=NN(c2ccc(Cl)cc2Cl)C(c2ccc(Cl)cc2)C1 (stereo not shown) [Example 0, 5-(4-chlorophenyl)-1-(2,4-dichlorophenyl)-4,5-dihydro-pyrazole-3-carboxylic acid]	–	–	67.5 (N.S.) mg/dl	inhibitor of high blood levels of triglicerides	improved the triglicerides blood levels	110.6
O=C(C1=NN(c2ccc(Cl)cc2Cl)C(c2ccc(Cl)cc2)C1)N1CCCCC1 (stereo not shown) [Example 5, [5-(4-Chloro-phenyl)-1-(2,4-dichloro-phenyl)-4,5-dihydro-1H-pyrazol-3-yl]-piperidin-1-yl-methanone]	~1	–	–	–	–	–
